Reference: US20040220164A1, “Triaza compound immunoregulatory agents” (priority 2001, published 2004)
In brackets after ≈: the same amount, converted by molar mass. Read-outs that look alike come from different tables or passages of the source.

What was measured:
HIV-1 strain NL4.3 = assay: Anti-HIV-1 assay in MT-4 cells (p24 Ag ELISA, Example 3); format: cell-based
Procedure, shortened: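 MT-4 cells infected with HIV-1 NL4.3 in presence of five-fold compound dilutions, incubated 3–5 days until strong viral CPE in untreated infected cells. Supernatant p24 core antigen measured by ELISA; IC50 is concentration giving 50% reduction in p24.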

HHV-7 (KHR strain) = assay: Anti-HHV-7 assay in SupT1 cells (antigen expression, flow cytometry, Example 3); format: cell-based; conditions: SUP-T1; SupT1 cells; read-out: IC50 HHV-7 (50% reduction of HHV-7 antigen expression)
Procedure, shortened: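 SupT1 cells pre-incubated 30 min at room temperature with five-fold compound dilutions, then infected with HHV-7. Every 2–3 days from day 4, half the medium and cells were replaced with compound-free medium. Once microscopic CPE appeared, HHV-7 antigen expression was measured by flow cytometry.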

[1] = Cytotoxicity assay (trypan blue exclusion, propidium iodide); format: cell-based, human; conditions: human, read-out: CC50 (50% cytotoxic concentration)
Procedure: Cytotoxicity Assay. Cellular toxicity of the compounds was measured by trypan blue exclusion and also by Propidium Iodide by flow cytometry after 3 or 4 days of incubation, in parallel with the CD4 antigen expression. The CC50 value of each CADA analog is the concentration (in μg/ml) required to reduce the viability of the cells by 50%.

CD4 [2] = biological target: T1, CD4 (Homo sapiens, UniProt P01730); assay: CD4 down-modulation, flow cytometry with FITC-conjugated anti-CD4 (SK3) mAb, MT-4 cells; format: cell-based; parameters: To study the effect of the CADA derivatives on surface CD4 antigen expression, MT-4 and SupT1 cells were incubated; endogenous in cells; host or cells: MT-4, SupT1, PBMC; conditions: for down-regulation of CD4 receptor expression / IC50: MT-4 cells; for down-regulation of CD4 receptor expression: 4 days (FIG. 5); for IC50: day 3, read-out: IC50 CD4 (50% inhibition of extracellular CD4 expression) (converted)
CD4 [3] = biological target: T1, CD4; assay: CD4 down-modulation, flow cytometry with FITC-conjugated anti-CD4 (SK3) mAb, SupT1 cells; format: cell-based; parameters: To study the effect of the CADA derivatives on surface CD4 antigen expression, MT-4 and SupT1 cells were incubated; endogenous in cells; host or cells: MT-4, SupT1, PBMC; conditions: for IC50: day 4, read-out: IC50 CD4 (50% inhibition of extracellular CD4 expression) (converted)
Procedure, shortened: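 MT-4 and SupT1 cells were exposed at 37 °C to 5-fold compound dilutions (50–0.08 μg/ml). On day 3 (MT-4) or day 4 (SupT1) they were stained with FITC anti-CD4 (SK3) for 30 min at 4 °C and analysed by flow cytometry. IC50 was derived from MFI as % of untreated control, after isotype subtraction.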

[4] = Human immunodeficiency virus 1, MT4, 96 h, MT-4 cells, 0.4 μg/ml, 4 days (FIG. 5), read-out: inhibition of NL4.3 virus production (p24)
[5] = Human immunodeficiency virus 1, MT4, MT-4 cells, read-out: IC50 HIV-1 (NL4.3), p24 Ag ELISA

Molecule `C=C1CN(S(=O)(=O)c2ccc(C)cc2)CCCN(Cc2ccccc2)CCCN(S(=O)(=O)c2ccc(C)cc2)C1` [CADA] has an inhibition at 0.4 µg/mL (HIV-1 strain NL4.3; [4]) of 25%, an IC50 (HIV-1 strain NL4.3; [5]) of 0.72 µg/mL (≈ 1.24 µM) and an IC50 (HIV-1 strain NL4.3; Human immunodeficiency virus 1, MT4 cells, Table 6, unit inferred, read-out: IC50(HIV-1)) of 0.52 µg/mL (≈ 0.894 µM). For the same molecule, the “inhibition of NL4.3 virus production (p24)” value (“inhibition … (p24)” below) (HIV-1 strain NL4.3; MT-4 cells, 0.08 μg/ml, 4 days (FIG. 5)) was “no anti-HIV-1 activity”, the “inhibition … (p24)” value (HIV-1 strain NL4.3; MT-4 cells, 2 μg/ml, 4 days (FIG. 5)) was “significant inhibition” and the “inhibition … (p24)” value (HIV-1 strain NL4.3; MT-4 cells, 10 μg/ml, 4 days (FIG. 5)) was “significant inhibition”. It also gave a p24 level (HIV-1 strain NL4.3; MT-4 cells, NL4.3, 0.08 μg/ml, 4 days, infected control cells 325 ng/ml) of 392 ng/mL, an IC50 (HHV-7 (KHR strain)) of 0.35 µg/mL (≈ 0.602 µM) and a CC50 ([1]; MT-4 cells) of 23.6 µg/mL (≈ 40.6 µM). For the same molecule, the CC50 ([1]; SupT1 cells) was > 50 µg/mL, the “down-regulation of CD4 receptor expression” value (“down-regulation” for short) (CD4 [2]; 0.08 μg/ml) was “no inhibitory effect” and the “down-regulation” value (CD4 [2]; 0.4 μg/ml) was 58%. For the same molecule, the “down-regulation” value (CD4 [2]; 2 μg/ml) was “significantly down-modulated”, the “down-regulation” value (CD4 [2]; 10 μg/ml) was “significantly down-modulated” and the IC50 (CD4 [2]) was 602 nM. It also gave an IC50 (CD4 [3]) of 980 nM.

With `C=C1CN(S(=O)(=O)c2ccc(C)cc2)CCCN(CC2CCCCC2)CCCN(S(=O)(=O)c2ccc(C)cc2)C1` [QJ028] the inhibition at 0.4 µg/mL (HIV-1 strain NL4.3; [4]) was 88%, the IC50 (HIV-1 strain NL4.3; [5]) was 0.2 µg/mL (≈ 0.34 µM) and the IC50 (HHV-7 (KHR strain)) was 0.05 µg/mL (≈ 0.0851 µM). The CC50 ([1]; MT-4 cells) was 20.7 µg/mL (≈ 35.2 µM), the CC50 ([1]; SupT1 cells) was 28.1 µg/mL (≈ 47.8 µM) and the “down-regulation” value (CD4 [2]; 0.4 μg/ml) was 73%. The IC50 (CD4 [2]) was 357 nM, the “CD4 down-regulating potency, fold more active than CADA” value (CD4 [2]; compared to CADA) was 2 fold and the “selectivity index (CC50/IC50)” value (CD4 [3]) was “approximately 100”. It also gave an IC50 (CD4 [3]) of 425 nM.

For `C=C1CN(S(=O)(=O)c2ccc(C)cc2)CCCN(C(=O)OCCC)CCCN(S(=O)(=O)c2ccc(C)cc2)C1` [QJ033], the inhibition at 2 µg/mL (HIV-1 strain NL4.3; Human immunodeficiency virus 1, MT4, 96 h, MT-4 cells, 2 μg/ml, 4 days (FIG. 5), read-out: inhibition of NL4.3 virus production (p24)) was 56%, the IC50 (HIV-1 strain NL4.3; [5]) was 1.22 µg/mL (≈ 2.11 µM) and the “inhibition … (p24)” value (HIV-1 strain NL4.3; MT-4 cells, 0.4 μg/ml, 4 days (FIG. 5)) was “no antiviral activity”. It also gave an IC50 (HHV-7 (KHR strain)) of 0.73 µg/mL (≈ 1.26 µM), a CC50 ([1]; MT-4 cells) of 25.5 µg/mL (≈ 44.1 µM) and a CC50 ([1]; SupT1 cells) of 32.5 µg/mL (≈ 56.3 µM). The “down-regulation” value (CD4 [2]; 0.4 μg/ml) was “nor significant CD4 down-regulation”, the “down-regulation” value (CD4 [2]; 2 μg/ml) was 69% and the IC50 (CD4 [2]) was 2060 nM. The “CD4 receptor down-modulating activity, fold higher than compound 95-213” value (CD4 [2]; compared to 95-213) was 5 fold and the IC50 (CD4 [3]) was 3270 nM.
